In data set [1] the test system is E. coli (PR7). The data set is described as follows: MIC, serial dilutions in plates, E. coli. Type of data set: cell-based. The conditions noted are these: Escherichia coli. The protocol:
(§1) The antibacterial spectrum and minimal inhibitory concentration (MIC) of typical compounds of the present invention are determined by one or more standard techniques. Thus, for example, serial dilutions of the compound being tested are made in tubes of rich medium containing no peptide […] (Atherton et al., 1979) or in plates containing the same medium plus agar. Series of tubes or plates of agar containing different concentrations of the test compound are inoculated with the cultures utilized to determine activity. After incubation for 24 hours at 37° C., the inoculated tubes or agar plates are examined for the inhibition of bacterial growth and an MIC is determined therefrom.
(§2) The following example illustrates the in vitro activity of the compounds of this invention against a variety of pathogenic organisms.
(§3) *Serial dilutions in plates as described by Atherton et al. (1979).

The subject of data set [2] is A. aerogenes (62.1). The data set is described as follows: MIC, serial dilutions in plates, A. aerogenes. To be noted: Klebsiella aerogenes. Type of data set: cell-based. The protocol: as §1, §2, §3
Data set [3] has as its system P. aerogerosa (ATCC 25619). The data set is described as follows: MIC, serial dilutions in plates, P. aerogerosa. It is filed as cell-based. Here is the method:
as §1, §2, §3

The test system of data set [4] is S. marcescens (ATCC 8100). The data set is described as follows: MIC, serial dilutions in plates, S. marcescens. It is filed as cell-based. The conditions noted are these: Serratia marcescens, ATCC8100. Here is the method:
as §1, §2, §3

The target in data set [5] is T1, Escherichia coli DAP-epimerase (E.C. 5.1.1.7) (Escherichia coli, UniProt P0A6K1).
T1 construct: endogenous in cells; host or cells: E. coli PR7; Endogenous enzyme purified by ammonium sulfate 30-45%, DE52 and Matrix green A dye-ligand column
T1 sequence (P0A6K1 whole entry): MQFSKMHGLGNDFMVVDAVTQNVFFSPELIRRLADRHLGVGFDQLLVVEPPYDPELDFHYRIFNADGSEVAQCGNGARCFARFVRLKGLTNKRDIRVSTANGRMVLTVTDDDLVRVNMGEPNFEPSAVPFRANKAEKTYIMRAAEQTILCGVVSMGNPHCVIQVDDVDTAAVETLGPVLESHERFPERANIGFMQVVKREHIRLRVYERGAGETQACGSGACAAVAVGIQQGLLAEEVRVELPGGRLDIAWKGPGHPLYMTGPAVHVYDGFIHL
The data set is described as follows: Inhibition of Escherichia coli DAP-epimerase (E.C. 5.1.1.7). Type of data set: biochemical, Escherichia coli (PR7). Here is the method: Strains were inoculated into Nutrient bath (5 ml) and grown up overnight (16 hours) at 37° C. Small amounts of cells were obtained in shake flask cultures (50 ml-1000 ml) obtained by innoculating Igarashi medium (Igarashi et al., 1979), with 2% of the starter culture. Cells were harvested at late-log (OD 540 nm 0,7-0,8) and rinsed before storage at -20° C. Larger amounts of cells were obtained using an overnight culture (Igarashi medium) of 2,5 l as innoculum for 80 l of Igarashi medium in a Biolaffite Fermenter. Cells were harvested in late-log (OD 540 nm 2.0) using a filtration system for cell concentration (40 fold) followed by centrifugation.
Cells from E. Coli (PR7), usually in batches of 40 g, were suspended in 100 ml buffer A (20 mM potassium phosphate 1 mM EDTA, 1 mM DTT, pH 7.0) by using the Ultraturrax apparatus (10 min). Passage through the French press (20,000 lbs/sq ins) and centrifugation 30,000 xg for 20 min gave the S30 crude extract. The supernatent was fractionated by adding solid ammonium sulfate to 30%, centrifugation was followed by further ammonium sulfate to 45%. The precipitated protein was dissolved in buffer to give a final volume of 10 ml which was dialysed overnight against 2,000 ml of buffer A.
The dialysed crude enzyme preparation was applied to a DEAE-cellulose column (2.3×49 cms) DES52, equilibrated with buffer A. The column was washed with 250 ml of buffer A and eluted with a linear gradiant formed by adding 250 ml of buffer A containing 0,22M KCl to 250 ml of buffer A. The flow rate was 25 ml/hr and 10 ml fractions were collected. DAP-epimerase eluted near the end of the gradiant at approximately 0,20M KCl. Pooled fractions containing DAPepimerase activity were dialysed overnight against 2,000 ml buffer A. Enzyme was concentrated by applying the dialysate to a smal DES52 column (0.9×10 cms), rinsing with 50 ml of buffer A and eluting with buffer A containing 0,50M KCl. The flow-rate was 20 ml/hr and 2,5 ml fractions were collected. Enzyme activity eluted immediately and pooled fractions were dialized against 1,000 ml buffer A.
A final purification step was obtained by applying the concentrated dialysed enzyme to a dye ligand column (1,4×5 cms), Matrix green A, rinsing with 50 ml buffer A and then eluting with 50 ml of buffer A containing 1,2M […] collecting 5 ml fractions. Pooled fractions were dialysed and concentrated on a small DE52 as described above.
(§4) DAP-epimerase activity was routinely measured at 25° C. Reaction mixtures contained 0.1M Tris HCl (pH 7,8), 1 mH EDTA, 1 mM DTT and […] of [G-^3 H]DAP in a total volume of 0.10 ml. After incubation for 40 min, reaction mixtures were quenched with 0.5 ml of 10% TCA and applied to 1 ml of AG50×4 ion-exchange resin (H' form) contained in a column (about 0.4×2 cms) fashioned from a blue pipette cone. The column was washed with 3×0.5 ml of water and the combined eluants counted for radioactivity.
(§5) In vitro DAP-epimerase, purified as described above, was incubated at 25° C. with various concentrations of δ-fluoro-ε-carboxylysine (usually 0, 10, 20, 40, 80 and […]) as described in the enzyme assay above.
*Values determined by Dixon plots (Ref. Dixon, M., 1972).

Data set [6] concerns the target T2, DAP-epimerase (EC 5.1.1.7) (Serratia marcescens, UniProt A0A0G3SSC4).
T2 sequence (A0A0G3SSC4 1-274): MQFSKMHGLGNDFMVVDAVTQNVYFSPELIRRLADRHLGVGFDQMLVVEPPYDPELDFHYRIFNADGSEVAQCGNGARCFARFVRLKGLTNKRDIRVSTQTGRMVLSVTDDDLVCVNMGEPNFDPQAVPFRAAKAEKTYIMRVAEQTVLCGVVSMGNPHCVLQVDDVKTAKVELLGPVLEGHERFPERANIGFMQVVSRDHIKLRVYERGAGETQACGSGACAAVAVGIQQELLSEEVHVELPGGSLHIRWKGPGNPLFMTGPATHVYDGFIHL
Nature of the data set: Inhibition of DAP-epimerase partially purified from Serratia marcescens. Type of data set: biochemical, Serratia marcescens (ATCC 8100). The conditions noted are these: enzyme partially purified from S. marcescens (ATCC 8100) through to the first DE52 column. Here is the method: as §4, §5
(§6) **DAPepimerase was partially purified from each organism as described
(§7) (Example VII) through to the first DE52 column except that with Aerobacte

Data set [7] has as its target T3, DAP-epimerase (EC 5.1.1.7) (Pseudomonas aeruginosa, UniProt Q51564).
T3 construct: **DAPepimerase was partially purified from each organism as described; endogenous in cells; host or cells: Pseudomonas aeruginosa ATCC 25619; Purified through the first DE52 column
T3 sequence (Q51564 1-276): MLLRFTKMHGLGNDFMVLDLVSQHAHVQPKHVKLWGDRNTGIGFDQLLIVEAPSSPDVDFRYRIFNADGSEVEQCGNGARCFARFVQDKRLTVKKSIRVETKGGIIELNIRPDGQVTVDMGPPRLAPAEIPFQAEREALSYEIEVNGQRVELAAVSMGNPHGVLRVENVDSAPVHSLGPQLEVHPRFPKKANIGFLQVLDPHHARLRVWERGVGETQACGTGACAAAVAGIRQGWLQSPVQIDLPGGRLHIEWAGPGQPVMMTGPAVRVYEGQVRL
The data set is described as follows: Inhibition of DAP-epimerase partially purified from Pseudomonas aerogenosa. The conditions noted are these: enzyme partially purified from P. aerogerosa (ATCC 25619) through to the first DE52 column. Type of data set: biochemical, Pseudomonas aerogenosa (ATCC 25619). The protocol:
as §4, §5, §6, §7

The nature of data set [8]: In vivo studies: serum levels in mice by bioassay. Set-up: species or system CFW mice. The conditions noted are these: for Serum half-life: mice. The protocol: Groups of 3 fasted CFW mice (20 g±2) were dosed subcutaneously with 20, 50 or 100 mg/kg or orally with 50 or 100 mg/kg of δ-fluoro-ε-carboxylysyl-L-alanyl-L-alanine. At intervals of from 10 min to 210 min, after dosing animals were anesthetised with ether, and heparinized blood samples obtained by eye-puncture. Samples were kept on ice and the plasma removed. After dilution (1:1) with saline, aliquots were assayed for δ-fluoro-ε-carboxylysyl-L-alanyl-alanine by bioassay.
The antibacterial activity of δ-fluoro-ε-carboxylysyl-L-alanyl-alanine was determined by plate assay on "Roche" agar medium (adjusted to pH 6,5-see Atherton et al. (1979) using Aerobacter aerogenes as the test strain. Standard solutions of δ-fluoro-ε-carboxylysyl-L-alanyl-alanine were prepared by suitable dilutions in water (from the same solution used for injection) and 0,4 μg to 7,0 μg were applied to sterile discs (9 mm dia.) concomittently with serum samples. After overnight incubation at 37° C., zones of inhibition were measured across two diameters. A standard plot of zone diameter vs log. concentration of standards was prepared. The average serum concentration of δ-fluoro-ε-carboxylysyl-L-alanyl-alanine from 3 mice was taken from this standard plot. Control serum had no activity and 50% serum had no effect on the standard plot.

Converted amounts (≈) assume the structure as drawn. Structures can show the parent of a compound that is named as a salt. Where two headings read alike, the source gives them in different places.

For orientation: MIC means the least concentration at which growth counts as inhibited. As to `C[C@H](NC(=O)[C@@H](N)CCC(F)C(N)C(=O)O)C(=O)O` (stereo partly drawn) [δ-fluoro-ε-carboxylysylalanine, δ-Fluoro-ε-carboxylysyl-L-alanine], the MIC was 12.5 mg/L (≈ 44.8 µM) in data set [1], 6 mg/L (≈ 21.5 µM) in data set [2], 0.8 mg/L (≈ 2.86 µM) in data set [3] and 0.2 mg/L (≈ 0.716 µM) in data set [4].
Usually IC50 stands for the concentration needed to halve the response being measured. Usually Ki stands for the dissociation constant of the complex between target and ligand, obtained from inhibition or displacement. `NC(CCC(F)C(N)C(=O)O)C(=O)O` (stereo not drawn) [δ-fluoro-ε-carboxylysine, 3-fluoro-2,6-diaminopimelic acid] gave an IC50 in data set [5] of 1.35 µM. Besides, the Ki in data set [5] was 7.7 µM; in data set [6], 1 µM; in data set [7], 5.4 µM. The “Inhibition after aliquots were removed and diluted 50-fold with the assay medium” value in data set [5] (in vitro, enzyme incubated with inhibitor at 25° C., then diluted 50-fold) is given as “no inhibition was observed”.
With `NC(CCC(F)(F)C(N)C(=O)O)C(=O)O` (stereo not drawn) [δ,δ-difluoro-ε-carboxylysine, 1,5-diamino-2,2-difluoro-1,5-pentanedicarboxylic acid, dihydrochloride], the IC50 in data set [5] (purified E. coli DAP-epimerase, 25° C., read-out: IC50) turned out to be 50 µM.
For `C[C@H](NC(=O)[C@H](C)NC(=O)[C@@H](N)CCC(F)C(N)C(=O)O)C(=O)O` (stereo partly drawn) [δ-FLUORO-ε-CARBOXYLYSYL-L-ALANYL-L-ALANINE], the MIC in data set [1] came to 12.5 mg/L (≈ 35.7 µM); in data set [2] it was 12.5 mg/L (≈ 35.7 µM); in data set [3], 100 mg/L (≈ 285 µM); in data set [4], 0.2 mg/L (≈ 0.571 µM). Moreover, the Serum half-life in data set [8] (P.O. (printed on the 50 mg/kg line)) stood at 1.07 h; in data set [8] (S.C. (printed on the 50 mg/kg line)), 1.2 h. In addition, in data set [8] (mouse, in vivo), the “Serum levels compared with minimum inhibition concentrations of infectious microorganisms” value is given as “consistently above the minimum inhibition concentrations”.
`NC(CCC(Cl)C(N)C(=O)O)C(=O)O` (stereo not drawn) [δ-chloro-ε-carboxylysine, 1,5-diamino-2-chloro-1,5-pentanedicarboxylic acid, dihydrochloride]: the affinity in data set [5] corresponds to a Ki of 0.5 µM.

The values are drawn from patent publication US4730006A, “Derivatives of 2,6-diamino-3-haloheptanedioic acid” (Merrell Dow Pharmaceuticals Inc., priority 1986, dated 1988).
